From patent US20070145618A1, “Methods of making microencapsulated delivery vehicles” (Kimberly-Clark Worldwide, Inc., priority 2005, published 2007)
Like-named read-outs stand apart in the source and are kept apart here.

How the values were obtained:
[1] = particle size 149-355 micrometers; 35 wt % in mineral oil; added to 7.0 grams de-ionized water; compared with four other size ranges
Experimental: In this example, samples incorporating various size ranges of anhydrous calcium chloride suspended in mineral oil at 35 wt % were evaluated for their ability to generate heat upon introduction into water.
The five size ranges of anhydrous calcium chloride evaluated were: (1) less than 149 microns; (2) 149-355 microns; (3) 710-1190 microns; (4) 1190-2000 microns; and (5) 2000-4000 microns. The samples of anhydrous calcium chloride (Dow Chemical, Midland, Mich.) were dispersed in mineral oil (available as Drakeol 7 LT NF from Penreco, Dickinson, Tex.). The as received anhydrous calcium chloride were screened dry using a Gilson Sonic Sieve (Gilson Company, Inc. Columbus, Ohio) to create two sizes, a 1190-2000 micron size and a 2000-4000 micron size. These powders were then suspended at 35 wt % in mineral oil to form a slurry using a cowles mixing blade. To achieve the smaller size distributions, the anhydrous calcium chloride powder required further processing. […]
All five samples were then individually added to 7.0 grams de-ionized water and the resulting temperature rise was measured using a Barnant Scanning Thermocouple (available from Therm-X of California, Hayward, Calif.).

[2] = particle size less than 250 micrometers; 35 wt % in mineral oil; added to 7.0 grams de-ionized water; compared with three other size ranges
Experimental: In this example, samples incorporating various size ranges of anhydrous magnesium chloride suspended in mineral oil at 35 wt % were evaluated for their ability to generate heat upon introduction into water.
The four size ranges of anhydrous magnesium chloride evaluated were: (1) 1000-1500 microns; (2) 600-1000 microns; (3) 250-600 microns; and (4) less than 250 microns. To produce the samples of anhydrous magnesium chloride in mineral oil, the various size ranges of anhydrous magnesium chloride powder (Magnesium Interface Inc. (Vancouver, B.C., Canada) were suspended at 35 wt % in mineral oil (available as Drakeol 7 LT NF from Penreco, Dickinson, Tex.). To produce the samples having anhydrous magnesium chloride with size ranges of 1000-1500 microns, 600-1000 microns, and 250-600 microns, the as received anhydrous magnesium chloride powder was hand screened into the size ranges desired and the powders collected. These powders were suspended at 35 wt % in mineral oil using a cowles mixing blade. […]
All four samples were then added to 7.0 grams de-ionized water and the resulting temperature rise was measured using a J type Thermocouple (available from Omega Engineering, Inc., Stamford, Conn.).

Structure (SMILES): [Ca+2].[Cl-].[Cl-] [anhydrous calcium chloride, calcium chloride]
- rate of heat release (heat generation rate) [1]: highest rate

Structure (SMILES): [Cl-].[Cl-].[Mg+2] [anhydrous magnesium chloride, magnesium chloride]
- rate of heat release (heat generation rate) [2]: highest rate
